ChEMBL document CHEMBL4321811, “Targeting the γ-Aminobutyric Acid Type B (GABAB) Receptor Complex: Development of Inhibitors Targeting the K+ Channel Tetramerization Domain (KCTD) Containing Proteins/GABAB Receptor Protein-Protein Interaction” (J Med Chem, 2019)
Blank lines part the entries; values can stand above or below the compound they belong to. Active and inactive are the calls of the source. The rule behind the calls is not given here. Non-standard residues stand in square brackets, D forms with d. Residues, ends and D or L forms follow the SMILES beside them. ξ: configuration not given here. ξS = NC(CO)C(=O)O

Key:
[1] = target: BTB/POZ domain-containing protein KCTD8 (Homo sapiens) (UniProt Q6ZWB6); assay: Binding affinity to Myc-tagged full length KCTD8 (unknown origin) expressed in HEK293 cells using resin-bound immobilized compound by pull down analysis; format: cell-based
Sequence of BTB/POZ domain-containing protein KCTD8 (Homo sapiens) (Q6ZWB6 whole entry, the tested form may be a part): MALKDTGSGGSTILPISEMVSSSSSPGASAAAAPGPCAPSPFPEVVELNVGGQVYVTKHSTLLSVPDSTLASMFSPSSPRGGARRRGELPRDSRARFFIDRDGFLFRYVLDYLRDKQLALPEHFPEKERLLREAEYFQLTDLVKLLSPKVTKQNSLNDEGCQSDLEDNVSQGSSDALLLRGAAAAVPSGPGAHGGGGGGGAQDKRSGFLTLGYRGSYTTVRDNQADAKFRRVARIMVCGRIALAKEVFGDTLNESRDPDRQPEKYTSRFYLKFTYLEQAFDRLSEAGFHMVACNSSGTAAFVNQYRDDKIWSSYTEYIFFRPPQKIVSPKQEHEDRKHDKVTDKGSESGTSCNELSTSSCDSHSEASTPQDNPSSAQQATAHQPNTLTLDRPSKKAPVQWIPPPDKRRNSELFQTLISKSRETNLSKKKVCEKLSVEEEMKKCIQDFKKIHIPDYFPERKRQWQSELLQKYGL

[2] = target: BTB/POZ domain-containing protein KCTD16 (Homo sapiens) (UniProt Q68DU8); assay: Binding affinity to Myc-tagged full length KCTD16 (unknown origin) expressed in HEK293 cells using resin-bound immobilized compound by pull down analysis; format: cell-based
Sequence of BTB/POZ domain-containing protein KCTD16 (Homo sapiens) (Q68DU8 whole entry, the tested form may be a part): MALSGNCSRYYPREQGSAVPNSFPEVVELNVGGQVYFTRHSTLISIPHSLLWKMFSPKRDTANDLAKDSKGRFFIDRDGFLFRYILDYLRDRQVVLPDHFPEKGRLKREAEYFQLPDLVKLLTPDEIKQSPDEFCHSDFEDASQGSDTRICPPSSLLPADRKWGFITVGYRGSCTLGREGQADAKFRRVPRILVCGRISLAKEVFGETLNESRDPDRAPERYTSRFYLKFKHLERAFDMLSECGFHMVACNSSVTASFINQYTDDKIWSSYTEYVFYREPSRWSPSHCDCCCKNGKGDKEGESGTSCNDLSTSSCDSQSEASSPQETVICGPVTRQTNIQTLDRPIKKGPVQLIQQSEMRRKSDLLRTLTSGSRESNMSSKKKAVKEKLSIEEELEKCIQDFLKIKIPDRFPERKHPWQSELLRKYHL

[3] = target: BTB/POZ domain-containing protein KCTD8 (Mus musculus) (UniProt Q50H33); assay: Binding affinity to KCTD8 in wild type mouse brain membrane using resin-bound immobilized compound incubated for overnight by pull-down experiment based immunoblot analysis; format: cell membranes
Sequence of BTB/POZ domain-containing protein KCTD8 (Mus musculus) (Q50H33 whole entry, the tested form may be a part): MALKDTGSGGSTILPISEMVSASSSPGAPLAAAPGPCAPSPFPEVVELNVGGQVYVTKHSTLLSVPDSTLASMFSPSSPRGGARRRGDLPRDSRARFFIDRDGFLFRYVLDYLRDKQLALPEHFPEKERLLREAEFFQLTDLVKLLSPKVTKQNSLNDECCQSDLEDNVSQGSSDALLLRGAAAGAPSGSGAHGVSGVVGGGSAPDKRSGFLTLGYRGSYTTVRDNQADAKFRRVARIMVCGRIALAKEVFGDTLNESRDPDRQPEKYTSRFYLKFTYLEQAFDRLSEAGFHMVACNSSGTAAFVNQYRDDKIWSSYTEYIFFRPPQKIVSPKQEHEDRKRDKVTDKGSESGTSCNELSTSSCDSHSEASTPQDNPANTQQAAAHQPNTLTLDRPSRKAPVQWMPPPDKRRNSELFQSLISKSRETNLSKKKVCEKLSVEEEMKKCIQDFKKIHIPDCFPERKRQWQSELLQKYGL

[4] = target: BTB/POZ domain-containing protein KCTD12 (Mus musculus) (UniProt Q6WVG3); assay: Binding affinity to KCTD12 in wild type mouse brain membrane using resin-bound immobilized compound incubated for overnight by pull-down experiment based immunoblot analysis; format: cell membranes
Sequence of BTB/POZ domain-containing protein KCTD12 (Mus musculus) (Q6WVG3 whole entry, the tested form may be a part): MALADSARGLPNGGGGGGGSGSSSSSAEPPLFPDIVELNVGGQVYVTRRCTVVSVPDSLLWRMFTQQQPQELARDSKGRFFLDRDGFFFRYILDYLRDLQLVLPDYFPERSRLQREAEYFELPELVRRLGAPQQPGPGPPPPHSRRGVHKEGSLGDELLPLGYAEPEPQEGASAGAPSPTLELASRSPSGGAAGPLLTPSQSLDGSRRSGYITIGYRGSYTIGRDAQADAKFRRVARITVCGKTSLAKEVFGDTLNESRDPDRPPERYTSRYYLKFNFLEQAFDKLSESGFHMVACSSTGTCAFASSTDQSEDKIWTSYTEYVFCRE

[5] = target: BTB/POZ domain-containing protein KCTD16 (Mus musculus) (UniProt Q5DTY9); assay: Binding affinity to KCTD16 in wild type mouse brain membrane using resin-bound immobilized compound incubated for overnight by pull-down experiment based immunoblot analysis; format: cell membranes
Sequence of BTB/POZ domain-containing protein KCTD16 (Mus musculus) (Q5DTY9 whole entry, the tested form may be a part): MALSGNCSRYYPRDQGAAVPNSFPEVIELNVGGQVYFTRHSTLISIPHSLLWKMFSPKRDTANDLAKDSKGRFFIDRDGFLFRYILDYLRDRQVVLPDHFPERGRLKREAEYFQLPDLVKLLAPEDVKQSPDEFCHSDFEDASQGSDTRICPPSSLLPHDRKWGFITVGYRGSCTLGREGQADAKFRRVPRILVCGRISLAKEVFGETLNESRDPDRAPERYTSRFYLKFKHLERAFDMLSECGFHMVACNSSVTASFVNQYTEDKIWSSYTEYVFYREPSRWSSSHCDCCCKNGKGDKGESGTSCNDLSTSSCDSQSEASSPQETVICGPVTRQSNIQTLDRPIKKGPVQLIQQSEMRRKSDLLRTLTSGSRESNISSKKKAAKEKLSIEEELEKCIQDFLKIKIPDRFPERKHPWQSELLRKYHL

[6] = target: BTB/POZ domain-containing protein KCTD8 (Mus musculus) (UniProt Q50H33); assay: Binding affinity to KCTD8 in wild type mouse brain cytoplasmic fraction using resin-bound immobilized compound incubated for overnight by pull-down experiment based immunoblot analysis; format: subcellular
[7] = target: BTB/POZ domain-containing protein KCTD12 (Mus musculus) (UniProt Q6WVG3); assay: Binding affinity to KCTD12 in wild type mouse brain cytoplasmic fraction using resin-bound immobilized compound incubated for overnight by pull-down experiment based immunoblot analysis; format: subcellular
[8] = target: BTB/POZ domain-containing protein KCTD16 (Mus musculus) (UniProt Q5DTY9); assay: Binding affinity to KCTD16 in wild type mouse brain cytoplasmic fraction using resin -bound immobilized compound incubated for overnight by pull-down experiment based immunoblot analysis; format: subcellular
[9] = target: T1, BTB/POZ domain-containing protein KCTD12 (Homo sapiens, UniProt Q96CX2); assay: Binding affinity to recombinant human 6X His-tagged KCTD12 T1 domain (27 to 131 residues) expressed in Escherichia coli BL21 DE3 cells preincubated for 1 hr followed by probing with HRP-conjugated 6X-His tag antibody for 0.5 hrs by SPOT peptide microarray analysis
T1 sequence (Q96CX2 whole entry, the tested form may be a part): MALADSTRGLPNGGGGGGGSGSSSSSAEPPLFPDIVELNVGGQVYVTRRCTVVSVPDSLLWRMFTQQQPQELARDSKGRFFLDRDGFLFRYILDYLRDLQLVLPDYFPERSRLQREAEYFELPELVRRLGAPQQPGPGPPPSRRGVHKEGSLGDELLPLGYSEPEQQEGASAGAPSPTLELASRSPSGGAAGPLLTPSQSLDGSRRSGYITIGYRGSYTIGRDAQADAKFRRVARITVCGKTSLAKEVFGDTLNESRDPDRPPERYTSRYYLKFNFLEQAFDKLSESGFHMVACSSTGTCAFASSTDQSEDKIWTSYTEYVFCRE

[10] = target: T1, BTB/POZ domain-containing protein KCTD12; assay: Displacement of TAMRA-AAG-SLQLPILHHAYLPSIGGV from recombinant human 6X His-tagged KCTD12 T1 domain (27 to 131 residues) expressed in Escherichia coli BL21 DE3 cells by fluorescence polarization assay
[11] = target: BTB/POZ domain-containing protein KCTD8 (Homo sapiens) (UniProt Q6ZWB6); assay: Displacement of TAMRA-AAG-SLQLPILHHAYLPSIGGV from recombinant human 6X His-tagged KCTD8 T1 domain (37 to 148 residues) expressed in Escherichia coli BL21 DE3 cells by fluorescence polarization assay
[12] = target: BTB/POZ domain-containing protein KCTD16 (Homo sapiens) (UniProt Q68DU8); assay: Displacement of TAMRA-AAG-SLQLPILHHAYLPSIGGV from recombinant 6X His tagged KCTD16 T1 domain (unknown origin) by fluorescence polarization assay
[13] = target: BTB/POZ domain-containing protein KCTD16 (Homo sapiens) (UniProt Q68DU8); assay: Binding affinity to recombinant 6X His-tagged KCTD16 T1 domain (unknown origin) assessed as high-order oligomer formation by measuring oligomer molecular weight at protein:compound concentration ratio of 1:2 by SEC-MALS analysis (reference value: […] +/- 2.5 kDa)
[14] = target: BTB/POZ domain-containing protein KCTD16 (Homo sapiens) (UniProt Q68DU8); assay: Binding affinity to recombinant 6X His-tagged KCTD16 T1 domain (unknown origin) assessed as increase in thermal stability of the protein at protein:compound ratio of 1:5 by Thermofluor analysis

Compound: H-NNNEEEKSRLLEKEN-OH
EC50 [9]: Not Active

Compound: H-LQLPILHHAYLPSIG-OH
Activity [9]: Active

Compound: H-PTPPEPSGGLPRGPP-OH
EC50 [9]: Not Active

Compound: H-SLQLPILHHAYLPSYHYY-OH
EC50 ([9]; read-out: EC50): 210 nM | IC50 [10]: Nd(Insoluble) | Ki [10]: Nd(Insoluble)

Compound: H-KTGSSTNNNEEEKSR-OH
EC50 [9]: Not Active

Compound: H-SLQLPILHHAYLPYYHYY-OH
EC50 ([9]; read-out: EC50): 1360 nM | IC50 [10]: Nd(Insoluble) | Ki [10]: Nd(Insoluble)

Compound: H-RLLEKENRELEKIIA-OH
EC50 [9]: Not Active

Compound: H-SGGLPRGPPEPPDRL-OH
EC50 [9]: Not Active

Compound: CC(C)C[C@H](NC(=O)CNC(=O)CNC(=O)[C@H](CO)NC(=O)[C@@H]1CCCN1C(=O)[C@H](CCC(=O)O)NC(=O)[C@@H]1CCCN1C(=O)[C@@H]1CCCN1C(=O)[C@H](NC(=O)[C@@H]1CCCN1C(=O)[C@@H]1CCCN1C(=O)[C@H](Cc1cnc[nH]1)NC(=O)[C@H](CCCNC(=N)N)NC(=O)[C@@H](N)CCCNC(=N)N)[C@@H](C)O)C(=O)N1CCC[C@H]1C(=O)O
EC50 [9]: Not Active

Compound: H-GSSTNNNEEEKSRLL-OH
EC50 [9]: Not Active

Compound: H-KSRLLEKENRELEKI-OH
EC50 [9]: Not Active

Compound: H-EPSGGLPRGPPEPPD-OH
EC50 [9]: Not Active

Compound: H-SLQLPILHHAYLPSIGGV-OH
Activity [11]: Active | Activity [12]: Active | Activity [13]: 66.4 kDa | Activity [14]: Active | Activity [1]: Active | Activity [2]: Active | Activity [3]: Active | Activity [4]: Active | Activity [5]: Active | Activity [6]: Active | Activity [7]: Active | Activity [8]: Active

Compound: CC[C@H](C)[C@H](NC(=O)[C@H](CO)NC(=O)[C@@H]1CCCN1C(=O)[C@H](CC(C)C)NC(=O)[C@H](Cc1ccc(O)cc1)NC(=O)[C@H](C)NC(=O)[C@H](Cc1cnc[nH]1)NC(=O)[C@H](Cc1cnc[nH]1)NC(=O)[C@H](CC(C)C)NC(=O)[C@H](NC(=O)[C@@H]1CCCN1C(=O)[C@H](Cc1ccc(O)cc1)NC(=O)[C@H](CC(N)=O)NC(=O)[C@H](Cc1ccc(O)cc1)NC(=O)[C@H](N)Cc1ccc(O)cc1)[C@@H](C)CC)C(=O)NCC(=O)NCC(=O)N[C@H](C(=O)O)C(C)C
Activity [13]: 60.1 kDa | Activity [14]: Active | Activity [1]: Active | Activity [2]: Active | Activity [3]: Active | Activity [4]: Active | Activity [5]: Active | Activity [6]: Active | Activity [7]: Active | Activity [8]: Active

Compound: H-EEKSRLLEKENRELE-OH
EC50 [9]: Not Active

Compound: CC[C@H](C)[C@H](NC(=O)C(CO)NC(=O)[C@@H]1CCCN1C(=O)[C@H](CC(C)C)NC(=O)[C@H](Cc1ccccc1)NC(=O)[C@H](C)NC(=O)[C@H](Cc1cnc[nH]1)NC(=O)[C@H](Cc1cnc[nH]1)NC(=O)[C@H](CC(C)C)NC(=O)[C@@H](NC(=O)[C@@H]1CCCN1C(=O)[C@H](CC(C)C)NC(=O)[C@H](CCC(N)=O)NC(=O)[C@H](CC(C)C)NC(=O)[C@@H](N)CO)[C@@H](C)CC)C(=O)NCC(=O)NCC(=O)N[C@H](C(=O)O)C(C)C (some centres not stated) (H-SLQLPILHHAFLP[ξS]IGGV-OH)
EC50 [9]: Not Active | IC50 [10]: Not Active | Ki [10]: Not Active

Compound: H-KEERVSELRHQLQSR-OH
EC50 [9]: Not Active

Compound: H-EKIIAEKEERVSELR-OH
EC50 [9]: Not Active

Compound: H-NRELEKIIAEKEERV-OH
EC50 [9]: Not Active

Compound: H-GLPRGPPEPPDRLSC-OH
EC50 [9]: Not Active

Compound: H-SLQLPILHHAYLPSI-OH
Activity [9]: Active

Compound: H-EAQDTMKTGSSTNNN-OH
EC50 [9]: Not Active

Compound: CC[C@H](C)[C@H](NC(=O)[C@H](CO)NC(=O)[C@@H]1CCCN1C(=O)[C@H](CC(C)C)NC(=O)[C@H](Cc1ccc(O)cc1)NC(=O)[C@H](C)NC(=O)[C@H](Cc1cnc[nH]1)NC(=O)[C@H](Cc1cnc[nH]1)NC(=O)[C@H](CC(C)C)NC(=O)[C@H](NC(=O)[C@@H]1CCCN1C(=O)[C@H](CC(C)C)NC(=O)[C@H](CCC(N)=O)NC(=O)[C@H](CC(C)C)NC(=O)[C@H](CO)NC(=O)[C@H](CC(C)C)NC(=O)[C@H](CCCNC(=N)N)NC(=O)[C@@H](N)CCCNC(=N)N)[C@@H](C)CC)C(=O)O
Activity [11]: Active | Activity [12]: Active

Compound: H-PRGPPEPPDRLSCDG-OH
EC50 [9]: Not Active

Compound: H-HPPTPPEPSGGLPRG-OH
EC50 [9]: Not Active

Compound: H-QDTMKTGSSTNNNEE-OH
EC50 [9]: Not Active

Compound: H-STNNNEEEKSRLLEK-OH
EC50 [9]: Not Active

Compound: CC[C@H](C)[C@H](NC(=O)C(CO)NC(=O)[C@@H]1CCCN1C(=O)[C@H](CC(C)C)NC(=O)[C@H](C)NC(=O)[C@H](C)NC(=O)[C@H](Cc1cnc[nH]1)NC(=O)[C@H](Cc1cnc[nH]1)NC(=O)[C@H](CC(C)C)NC(=O)[C@@H](NC(=O)[C@@H]1CCCN1C(=O)[C@H](CC(C)C)NC(=O)[C@H](CCC(N)=O)NC(=O)[C@H](CC(C)C)NC(=O)[C@@H](N)CO)[C@@H](C)CC)C(=O)NCC(=O)NCC(=O)N[C@H](C(=O)O)C(C)C (some centres not stated) (H-SLQLPILHHAALP[ξS]IGGV-OH)
EC50 [9]: Not Active | IC50 [10]: Not Active | Ki [10]: Not Active

Results, then the compound that gave them:

Activity [1]: inactive | Activity [2]: inactive | Activity [3]: inactive | Activity [4]: inactive | Activity [5]: inactive | Activity [6]: inactive | Activity [7]: inactive | Activity [8]: inactive
Compound: H-SLQLPIAHHAALPSIGGV-OH

EC50 [9]: Not Active
Compound: H-AEKEERVSELRHQLQ-OH

Activity [9]: Active
Compound: H-LPILHHAYLPSIGGV-OH

EC50 [9]: Not Active
Compound: H-GPPEPPDRLSCDGSR-OH

EC50 [9]: Not Active
Compound: H-PPEPSGGLPRGPPEP-OH

EC50 [9]: Not Active
Compound: H-LEKENRELEKIIAEK-OH

EC50 [9]: Not Active
Compound: H-IIAEKEERVSELRHQ-OH

EC50 [9]: Not Active
Compound: H-ELEKIIAEKEERVSE-OH

Activity [9]: Active
Compound: H-QLPILHHAYLPSIGG-OH

EC50 [9]: Not Active
Compound: H-TMKTGSSTNNNEEEK-OH

EC50 [9]: Not Active
Compound: H-KENRELEKIIAEKEE-OH

EC50 [9]: Not Active
Compound: CC(C)C[C@H](NC(=O)[C@H](CCCNC(=N)N)NC(=O)[C@H](CC(=O)O)NC(=O)[C@@H]1CCCN1C(=O)[C@@H]1CCCN1C(=O)[C@H](CCC(=O)O)NC(=O)[C@@H]1CCCN1)C(=O)N[C@@H](CO)C(=O)N[C@@H](CS)C(=O)N[C@@H](CC(=O)O)C(=O)NCC(=O)N[C@@H](CO)C(=O)N[C@@H](CCCNC(=N)N)C(=O)N[C@H](C(=O)N[C@@H](Cc1cnc[nH]1)C(=O)O)C(C)C

EC50 [9]: Not Active
Compound: H-NEEEKSRLLEKENRE-OH
